Data reported in US20240132887A1, “PROTEIN ARGININE METHYLTRANSFERASE 9 INHIBITORS AND METHODS OF USE” (City of Hope, priority 2022, published 2024).

What was measured:
PRMT9 = biological target: T1, PRMT9 (Homo sapiens, UniProt Q6P2P2); assay: In-house R493 methylation assay (PABPC1 peptide, SAM, dot blot with anti-R493me antibody); format: biochemical; conditions: for PRMT9 inhibition (catalytic activity screen of top 20 compounds): compounds 10 μM, PRMT9 pretreated 1 h
T1 construct: Myc; made in house
T1 sequence (Q6P2P2 1-845): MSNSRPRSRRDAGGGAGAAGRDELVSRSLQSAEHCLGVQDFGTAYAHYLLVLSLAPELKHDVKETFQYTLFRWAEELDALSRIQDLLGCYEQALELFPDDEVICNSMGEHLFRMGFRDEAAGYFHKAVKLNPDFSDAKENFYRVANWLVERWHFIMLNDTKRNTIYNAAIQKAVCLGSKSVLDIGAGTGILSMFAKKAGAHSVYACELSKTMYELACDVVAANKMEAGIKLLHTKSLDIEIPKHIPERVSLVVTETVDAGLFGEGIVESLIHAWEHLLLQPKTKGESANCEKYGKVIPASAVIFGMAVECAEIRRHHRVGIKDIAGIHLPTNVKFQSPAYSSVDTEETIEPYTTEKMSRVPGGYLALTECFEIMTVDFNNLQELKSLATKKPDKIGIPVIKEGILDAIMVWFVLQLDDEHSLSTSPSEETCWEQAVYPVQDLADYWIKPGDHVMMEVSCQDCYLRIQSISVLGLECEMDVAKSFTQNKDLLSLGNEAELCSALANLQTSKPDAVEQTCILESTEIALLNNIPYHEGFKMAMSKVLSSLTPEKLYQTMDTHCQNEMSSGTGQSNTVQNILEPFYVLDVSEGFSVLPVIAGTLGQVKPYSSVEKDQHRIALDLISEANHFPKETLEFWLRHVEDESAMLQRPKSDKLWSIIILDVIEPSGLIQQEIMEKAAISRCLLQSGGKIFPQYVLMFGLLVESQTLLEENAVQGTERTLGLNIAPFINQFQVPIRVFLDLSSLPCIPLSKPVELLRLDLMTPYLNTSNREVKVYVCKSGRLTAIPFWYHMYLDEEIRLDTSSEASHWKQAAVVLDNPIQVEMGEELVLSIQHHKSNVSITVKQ
Procedure: FIG. 10D: Catalytic activity screen of 9 selected compounds using an in-house R493 methylation assay. PRMT9 protein was pretreated 1 h with indicated compounds using in vitro methylation buffer and then incubated with synthesized unmodified PABPC1 peptides and SAM. […] Catalytic activity inhibition curves are calculated based on intensity of blots normalized to intensity at 37° C. (n=2). […] Data (FIG. 10I) are represented as mean±SD; P values (FIG. 10I) were determined by two-way ANOVA.
FIG. 11B: In-house R493 methylation assay. Synthesized unmodified PABPC1 peptides (aaG491-T507) were incubated 4 h with PRMT9 and SAM at 30° C. Catalytic activity was assessed by dot blot with anti-R493 specific antibody. PRMT9 or unmodified PABPC1 peptide alone served as negative controls, and synthesized R493me PABPC1 peptide as positive. FIG. 11C: Catalytic activity screen of top 20 compounds based on Molm13 viability assay with an in-house R493 methylation assay. PRMT9 protein was pretreated 1 h with indicated compounds (10 μM) and then incubated with synthesized unmodified PABPC1 peptides and SAM. Catalytic activity was assessed by dot blot with an anti-R493me specific antibody.

[1] = system: MNCs from AML BM specimens; assay: Primary AML MNC ex-vivo culture (CyTOF, flow cytometry); format: cell-based, human; conditions: αPD-1 alone or combined with LD2, 4 days ex-vivo
Procedure: Spanning-tree Progression Analysis of Density-normalized Events (SPADE) clustering was performed to identify cell groups corresponding to immunophenotypic subsets across normal hematopoiesis lineages. The frequency of CD3^+ T cells and CD34^+CD45^dim AML blast cells were noted. […] The relative number of alive CD34^+CD45^dim AML blast cells was assessed by flow cytometry. Data are presented as mean±SD from 3 independent experiments.
After 4 days treatment of vehicle (VEH) or LD2, survival of leukemic (CD34+CD33+) and immune subsets, including T cells (CD3+), B cells (CD19+/CD20+), and DCs (HLA-DR+CD34−CD33−CD3−CD19−CD20−CD14−CD56−), were accessed using Annexin-V staining.
LD2 treatment in total of 4 days ex-vivo culture (under the BM stroma cytokine condition).

Molecule | PRMT9 inhibition (catalytic activity screen of top 20 compounds) (PRMT9) | proportion / frequency of tumor cells [1] | PRMT9 inhibitory effects (PABP1 R493me levels) (PRMT9; different concentrations of each compound, comparison among the three NSC compounds)
Cc1ccc2c(c1)c1ccc3c(c1n2C)C(=O)C=CC3=O [NSC661221] | most potent PRMT9 inhibition | – | –
Cc1cccc2c1c1ccc3c(c1n2C)C(=O)C=CC3=O [NSC645330] | most potent PRMT9 inhibition | – | –
αPD-1: anti-PD-1 (pembrolizumab, SIM0010, BioXCell) used in ex-vivo AML cultures | – | marginally decreased the proportion of tumor cells | –
COc1ccc2c(c1)c1ccc3c(c1n2C)C(=O)C=CC3=O [NSC641396] | most potent PRMT9 inhibition | – | most potent PRMT9 inhibitory effects
